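Cultured in 96-well plates, cells were exposed to test compound for 48 hours across five concentrations. TGI: concentration producing complete growth inhibition.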
Key:
Experiment in all cases: NCI anticancer screen, dose series, 48 h
786-0 renal = system: 786-0 renal
A498 renal = system: A498 renal
A549 NSCLC = system: A549 NSCLC
ACHN renal = system: ACHN renal
BT-549 breast = system: BT-549 breast
CAKI-1 renal = system: CAKI-1 renal
CCRF-CEM leukemia = system: CCRF-CEM leukemia
COLO 205 colon = system: COLO 205 colon
DU-145 prostate = system: DU-145 prostate
EKVX NSCLC = system: EKVX NSCLC
HCC-2998 colon = system: HCC-2998 colon
HCT-116 colon = system: HCT-116 colon
HCT-15 colon = system: HCT-15 colon
HL-60(TB) leukemia = system: HL-60(TB) leukemia
HOP-62 NSCLC = system: HOP-62 NSCLC
HOP-92 NSCLC = system: HOP-92 NSCLC
HS 578T breast = system: HS 578T breast
HT29 colon = system: HT29 colon
IGROV1 ovarian = system: IGROV1 ovarian
K-562 leukemia = system: K-562 leukemia
KM12 colon = system: KM12 colon
LOX IMVI melanoma = system: LOX IMVI melanoma
M14 melanoma = system: M14 melanoma
MALME-3M melanoma = system: MALME-3M melanoma
MCF7 breast = system: MCF7 breast
MDA-MB-231 breast = system: MDA-MB-231 breast
MDA-MB-435 = system: MDA-MB-435
MDA-N = system: MDA-N
MOLT-4 leukemia = system: MOLT-4 leukemia
NCI-H23 lung = system: NCI-H23 lung
NCI-H460 lung = system: NCI-H460 lung
NCI-H522 lung = system: NCI-H522 lung
NCI/ADR-RES ovarian = system: NCI/ADR-RES ovarian
OVCAR-3 ovarian = system: OVCAR-3 ovarian
OVCAR-5 ovarian = system: OVCAR-5 ovarian
OVCAR-8 ovarian = system: OVCAR-8 ovarian
PC-3 prostate = system: PC-3 prostate
RPMI-8226 leukemia = system: RPMI-8226 leukemia
RXF 393 renal = system: RXF 393 renal
SF-268 CNS = system: SF-268 CNS
SF-295 CNS = system: SF-295 CNS
SF-539 CNS = system: SF-539 CNS
SK-MEL-2 melanoma = system: SK-MEL-2 melanoma
SK-MEL-28 melanoma = system: SK-MEL-28 melanoma
SK-MEL-5 melanoma = system: SK-MEL-5 melanoma
SK-OV-3 ovarian = system: SK-OV-3 ovarian
SN12C renal = system: SN12C renal
SNB-19 CNS = system: SNB-19 CNS
SNB-75 CNS = system: SNB-75 CNS
SR leukemia = system: SR leukemia
SW-620 colon = system: SW-620 colon
T-47D breast = system: T-47D breast
TK-10 renal = system: TK-10 renal
U251 CNS = system: U251 CNS
UACC-257 melanoma = system: UACC-257 melanoma
UACC-62 melanoma = system: UACC-62 melanoma
UO-31 renal = system: UO-31 renal
NCI-H226 lung = system: NCI-H226 lung
OVCAR-4 ovarian = system: OVCAR-4 ovarian

## Cc1ccc(N2C(=O)C(=O)N(/N=C3\C(=O)Nc4ccccc43)C2=S)cc1
786-0 renal
  TGI: > 100 µM
A498 renal
  TGI: > 100 µM
A549 NSCLC
  TGI: > 100 µM
ACHN renal
  TGI: > 100 µM
BT-549 breast
  TGI: > 100 µM
CAKI-1 renal
  TGI: > 100 µM
CCRF-CEM leukemia
  TGI: > 100 µM
COLO 205 colon
  TGI: > 100 µM
DU-145 prostate
  TGI: > 100 µM
EKVX NSCLC
  TGI: > 100 µM
HCC-2998 colon
  TGI: > 100 µM
HCT-116 colon
  TGI: > 100 µM
HCT-15 colon
  TGI: > 100 µM
HL-60(TB) leukemia
  TGI: 25.4 µM
HOP-62 NSCLC
  TGI: > 100 µM
HOP-92 NSCLC
  TGI: > 100 µM
HS 578T breast
  TGI: > 100 µM
HT29 colon
  TGI: > 100 µM
IGROV1 ovarian
  TGI: > 100 µM
K-562 leukemia
  TGI: > 100 µM
KM12 colon
  TGI: > 100 µM
LOX IMVI melanoma
  TGI: > 100 µM
M14 melanoma
  TGI: > 100 µM
MALME-3M melanoma
  TGI: > 100 µM
MCF7 breast
  TGI: > 100 µM
MDA-MB-231 breast
  TGI: > 100 µM
MDA-MB-435
  TGI: > 100 µM
MDA-N
  TGI: > 100 µM
MOLT-4 leukemia
  TGI: > 100 µM
NCI-H23 lung
  TGI: > 100 µM
NCI-H460 lung
  TGI: > 100 µM
NCI-H522 lung
  TGI: > 100 µM
NCI/ADR-RES ovarian
  TGI: > 100 µM
OVCAR-3 ovarian
  TGI: > 100 µM
OVCAR-5 ovarian
  TGI: > 100 µM
OVCAR-8 ovarian
  TGI: > 100 µM
PC-3 prostate
  TGI: > 100 µM
RPMI-8226 leukemia
  TGI: > 100 µM
RXF 393 renal
  TGI: > 100 µM
SF-268 CNS
  TGI: > 100 µM
SF-295 CNS
  TGI: > 100 µM
SF-539 CNS
  TGI: > 100 µM
SK-MEL-2 melanoma
  TGI: > 100 µM
SK-MEL-28 melanoma
  TGI: > 100 µM
SK-MEL-5 melanoma
  TGI: > 100 µM
SK-OV-3 ovarian
  TGI: > 100 µM
SN12C renal
  TGI: > 100 µM
SNB-19 CNS
  TGI: > 100 µM
SNB-75 CNS
  TGI: > 100 µM
SR leukemia
  TGI: > 100 µM
SW-620 colon
  TGI: > 100 µM
T-47D breast
  TGI: > 100 µM
TK-10 renal
  TGI: > 100 µM
U251 CNS
  TGI: > 100 µM
UACC-257 melanoma
  TGI: > 100 µM
UACC-62 melanoma
  TGI: > 100 µM
UO-31 renal
  TGI: > 100 µM

## COC1OC(C(C)O)C2OC(C)(C)OC12 (configuration not stated)
786-0 renal
  TGI: > 100 µM
A498 renal
  TGI: > 100 µM
A549 NSCLC
  TGI: > 100 µM
ACHN renal
  TGI: > 100 µM
BT-549 breast
  TGI: > 100 µM
CAKI-1 renal
  TGI: > 100 µM
CCRF-CEM leukemia
  TGI: > 100 µM
COLO 205 colon
  TGI: > 100 µM
DU-145 prostate
  TGI: > 100 µM
EKVX NSCLC
  TGI: > 100 µM
HCT-116 colon
  TGI: > 100 µM
HCT-15 colon
  TGI: > 100 µM
HL-60(TB) leukemia
  TGI: > 100 µM
HOP-62 NSCLC
  TGI: > 100 µM
HS 578T breast
  TGI: > 100 µM
HT29 colon
  TGI: > 100 µM
IGROV1 ovarian
  TGI: > 100 µM
K-562 leukemia
  TGI: > 100 µM
KM12 colon
  TGI: > 100 µM
LOX IMVI melanoma
  TGI: > 100 µM
M14 melanoma
  TGI: > 100 µM
MCF7 breast
  TGI: > 100 µM
MDA-MB-231 breast
  TGI: > 100 µM
MDA-MB-435
  TGI: > 100 µM
MDA-N
  TGI: > 100 µM
MOLT-4 leukemia
  TGI: > 100 µM
NCI-H226 lung
  TGI: > 100 µM
NCI-H23 lung
  TGI: > 100 µM
NCI-H460 lung
  TGI: > 100 µM
NCI-H522 lung
  TGI: > 100 µM
NCI/ADR-RES ovarian
  TGI: > 100 µM
OVCAR-3 ovarian
  TGI: > 100 µM
OVCAR-4 ovarian
  TGI: > 100 µM
OVCAR-5 ovarian
  TGI: > 100 µM
OVCAR-8 ovarian
  TGI: > 100 µM
PC-3 prostate
  TGI: > 100 µM
RPMI-8226 leukemia
  TGI: > 100 µM
SF-268 CNS
  TGI: > 100 µM
SF-295 CNS
  TGI: > 100 µM
SF-539 CNS
  TGI: > 100 µM
SK-MEL-2 melanoma
  TGI: > 100 µM
SK-MEL-28 melanoma
  TGI: > 100 µM
SK-MEL-5 melanoma
  TGI: > 100 µM
SK-OV-3 ovarian
  TGI: > 100 µM
SN12C renal
  TGI: > 100 µM
SNB-19 CNS
  TGI: > 100 µM
SNB-75 CNS
  TGI: > 100 µM
SR leukemia
  TGI: > 100 µM
SW-620 colon
  TGI: > 100 µM
T-47D breast
  TGI: > 100 µM
TK-10 renal
  TGI: > 100 µM
U251 CNS
  TGI: > 100 µM
UACC-257 melanoma
  TGI: > 100 µM
UACC-62 melanoma
  TGI: > 100 µM
UO-31 renal
  TGI: > 100 µM

Source: PubChem BioAssay (NCI)
